Test results published in patent US8129532B2, “Amino(oligo)thiophene dyes, preparation thereof, and optical methods of use” (The University of Connecticut, priority 2007, dated 2012).

Legend:
[1] = One-photon fluorescence relative signal change per 100 mV; settings: excitation / long-pass emission (nm) given
Text: The left-most data columns of Table 1 are the absorption and emission maxima for one photon fluorescence in soybean multi-lamellar lipid vesicles used to mimic the membrane environment. The column indicating relative signal change for one-photon fluorescence also lists the excitation light source used and the lower bounds of the long-pass emission detected.

[2] = system: layer V pyramidal neurons; experiment: Voltage-sensitive dye imaging of action potentials in intracellularly stained pyramidal neurons in brain slices; assay type: cell-based, Sprague Dawley rats; settings: for dF/F at 633 nm / dF/F at 658 nm: backpropagating AP, %; for dF/F at 633 nm / dF/F at 658 nm / voltage sensitivity compared with red dye: basal dendrites 80-150 μm from soma; for dF/F at 633 nm / S/N ratio at 633 nm: laser spot 633 nm; for dF/F at 658 nm / S/N ratio at 658 nm: laser spot 658 nm
Text: Sprague Dawley rats (P21-42) were anesthetized with isoflurane, decapitated, and the brains were removed with the head immersed in ice-cold, artificial cerebrospinal fluid (ACSF), according to an animal protocol approved by the Center for Laboratory Animal Care, University of Connecticut. Brain slices (300 μm) were cut from frontal lobes in the coronal plane. ACSF contained (in mM) 125 NaCl, 26 NaHCO3, 10 glucose, 2.3 KCl, 1.26 KH2PO4, 2 CaCl2 and 1 MgSO4, pH 7.4. Whole-cell recordings were made from visually identified layer V pyramidal neurons on the medial part of the slice. Intracellular solution contained (in mM) 135 K-gluconate, 2 MgCl2, 3 Na2-ATP, 10 Na2-phosphocreatine, 0.3 Na2-GTP and 10 Hepes (pH 7.3, adjusted with KOH). Electrical signals were amplified with Multiclamp 700A and digitized with two input boards: (1) Digidata Series 1322A (Axon Instruments) at 5 kHz, and (2) Neuroplex (RedShirtImaging) at 2.7 kHz sampling rate. Only cells with a membrane potential more hyperpolarized than −50 mV, and action potential amplitudes exceeding 80 mV (measured from the base line) were included in this study. All experiments were performed on layer 5 cortical pyramidal cells at 34° C.
Blue dyes were stored in ethanol stock solution at −20° C. On the day of the recording blue dyes were dissolved in standard K-gluconate based intracellular solution. A loading pipette was filled with two varieties of the same intracellular solution; one with and one without dye. Dye-free solution was occupying the very tip of the pipette, while the back of the pipette lumen was microloaded with dye-rich solution. The purpose of dye-free solution in the tip of the patch pipette was to prevent dye-leak during the maneuver through brain slice tissue. VSD styryl dyes are lipophilic and bind indiscriminately and irreversibly to all membranes around the neuron of interest. Even a small amount of dye that leaks out of the pipette during the formation of the gigaohm seal, can generate strong fluorescent background. Fluorescent light emanating from surrounding tissue has a devastating effect on dendritic optical signals. Elimination of the background fluorescence is critical for dendritic voltage imaging. How much dye-free solution one should put in the tip depends on time period between the submersion of the patch pipette into the recording chamber and formation of the gigaohm seal. The faster one can perform this maneuver the less dye-free solution she needs to achieve optimal staining.
Blue VSD were injected at room temperature for 25-60 minutes. The filling pipette was carefully pulled out (outside-out patch) and brain slices were left to incubate for 20-120 minutes at room temperature. Just before optical recordings the cells were re-patched with dye-free pipette at the physiological temperature (34° C.).
Voltage-sensitive dye imaging was performed on a Zeiss Axioskope 2FS microscope equipped with NeuroCCD camera (RedShirtImaging). We used Zeiss 40× objective IR-Achroplan 0.80 W. The size of the square visual field captured by NeuroCCD camera was 384×384 um. In the place of the arc lamp (normally used for epi-illumination), we inserted a 200 μm fiber optic guide with a collimator. Laser beam was focused on the other side of the fiber optic guide using a microscope objective-like lens. This arrangement produced a motionless spot of laser light (˜25 μm in diameter) at the object plane. An illuminated section of the brain slice, projected onto the NeuroCCD camera, covered approximately 25 pixels when used with 40× objective lens. At this magnification, one pixel sampled a 4.8×4.8 square in the object plane. A region of interest (ROI) was brought into the laser spot using X-Y microscope platform. The laser beam was interrupted by an electro-programmable shutter (Uniblitz®). Attention was made to limit the exposure time during the recording and positioning of the neuron.

## CCCN(CCC)c1ccc(-c2ccc(/C=C/c3cc[n+](CCC[N+](CC)(CC)CC)cc3)s2)s1 [PY-1286, Di-3-BTEPPTEA]
[1]
  1PF Change (ΔF/F-100 mv): 1.8E−001; 640/>715 ΔF/F-100 mv
[2]
  dF/F at 633 nm: 13.67 ± 2.89%
  dF/F at 658 nm: 7.64 ± 2.20%
  voltage sensitivity compared with red dye: better sensitivity than red dye JPW-3028
  S/N ratio at 633 nm: 4.53 ± 0.95
  S/N ratio at 658 nm: 5.13±2.31

## CCCCN(CCCC)c1ccc(-c2ccc(/C=C/c3cc[n+](CCC[N+](CC)(CC)CC)cc3)s2)s1 [PY-1266, Di-4-BTEPPTEA]
[1]
  1PF Change (ΔF/F-100 mv): 1.0E−001; 635/>715 ΔF/F-100 mv
[2]
  polarity of optical signal at 532 nm excitation: positive signals
  polarity of optical signal at 658 nm excitation: positive signals
  dF/F at 633 nm: 10.41 ± 2.80%
  dF/F at 658 nm: 8.32 ± 2.13%
  voltage sensitivity compared with red dye: better sensitivity than red dye JPW-3028
  S/N ratio at 633 nm: 4.77 ± 1.35
  S/N ratio at 658 nm: 5.22 ± 1.32

## CCN(CC)c1ccc(-c2ccc(/C=C/c3cc[n+](CCC[N+](CC)(CC)CC)cc3)s2)s1 [PY-1261, Di-2-BTEPPTEA]
[1]
  1PF Change (ΔF/F-100 mv): 5.0E−002; 625/>715 ΔF/F-100 mv
[2]
  dF/F at 658 nm: 7.91 ± 1.57%
  voltage sensitivity compared with red dye: better sensitivity than red dye JPW-3028
  S/N ratio at 658 nm: 5.38 ± 1.86
